Data on two molecules can be found in patent US20040039053A1, “Use of(-) (3-halomethylphenoxy) (4-halophenyl) acetic acid derivatives for treatment of insulin resistance, type 2 diabetes, hyperlipidemia and hyperuricemia” (priority 2000, published 2004).

“Also recorded” adds a separate entry of the source.

In series [1] the target is T1, CYP2A6 (Homo sapiens, UniProt P11509).
T1 sequence (P11509 1-494): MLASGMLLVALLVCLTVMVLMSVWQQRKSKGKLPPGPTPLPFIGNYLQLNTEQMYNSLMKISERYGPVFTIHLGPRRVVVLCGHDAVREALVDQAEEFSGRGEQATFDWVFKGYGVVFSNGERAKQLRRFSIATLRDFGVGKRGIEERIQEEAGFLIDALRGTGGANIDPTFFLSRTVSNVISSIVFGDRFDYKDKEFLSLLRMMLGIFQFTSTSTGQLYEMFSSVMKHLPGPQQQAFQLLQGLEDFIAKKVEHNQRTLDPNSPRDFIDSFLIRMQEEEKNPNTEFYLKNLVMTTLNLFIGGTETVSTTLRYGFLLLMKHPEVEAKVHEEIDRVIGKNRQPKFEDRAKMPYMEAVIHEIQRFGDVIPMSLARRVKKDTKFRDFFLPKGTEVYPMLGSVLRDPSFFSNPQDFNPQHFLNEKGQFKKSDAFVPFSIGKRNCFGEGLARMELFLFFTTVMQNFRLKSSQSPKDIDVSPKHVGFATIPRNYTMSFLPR
The experiment in a line: Cytochrome P450 isoform inhibition in human hepatic microsomes, coumarin (Example 18). As to conditions: positive control 250 μM; VC 32.0 ± 1.4.

Series [2] has as its system diabetic ob/ob mice. The experiment in a line: Glucose and insulin lowering on daily oral administration for 5 days in ob/ob mice (Example 9).
Method: Animals were housed (4-5 mice/cage) under standard laboratory conditions at 22° C. and 50% relative humidity, and were maintained on a diet of Purina rodent chow and water ad libitum. Prior to treatment, blood was collected from the tail vein of each animal. Mice that had non-fasting plasma glucose levels between 300 and 520 mg/dL were used. Each treatment group consisted of 10 mice that were distributed so that the mean glucose levels were equivalent in each group as the start of the study. […] The gavage volume was 10 ml/kg. Blood samples were taken at 3, 6, 27, 30 and 120 hour after the first dose and analyzed for plasma glucose and insulin. The animals were fasted overnight (14 hours) before the 120 hours sampling. Plasma glucose concentrations were determined calorimetrically using glucose oxidase method (Sigma Chemical Co, St. Louis, Mo., USA). Plasma insulin concentrations were determined by using the Rat Insulin RIA Kit from Linco Research Inc. (St. Charles, Mo., USA). Significance difference between groups (comparing drug-treated to vehicle-treated) was evaluated using Student unpaired t-test.
The test system of series [3] is Zucker fatty rats. The series is described as follows: Oral glucose challenge in Zucker fatty rats (Example 10). The format is in vivo. The following applies: racemate 100 mg/kg, enantiomers 50 and 100 mg/kg. As to the method:
(§1) Prior to treatment, rats were assigned to 6 groups based on body weight. Each treatment group consisted of 8 rats. […] The gavage volume was 10 ml/kg. All rats received an oral glucose challenge (1.9 g/kg) 5.5 hours after the treatment and 4 hours after withdrawal of the food. Blood samples were taken at 0, 15, 30, 60, 90, 120, and 180 minutes following the glucose challenge for plasma glucose measurement. […] On day 5, rats received the intravenous insulin (0.75 U/kg) 5.5 hours after the last dose and 4 hours after withdrawal of the food. Blood samples were taken at 3, 6, 9, 12, 15 and 18 minutes following the insulin injection for plasma glucose measurement.

Series [4] concerns C57BL/6J db/db mice. The experiment in a line: Prevention of diabetes and alleviation of hypertriglyceridemia in db/db mice (Example 15). It counts as in vivo. The following applies: 150 mg/kg/day in chow, 9 weeks; for plasma triglyceride levels with age, in words: 150 mg/kg/day. As for the experimental part:
Blood samples were taken at 8-10 AM once a week for 9 weeks under non-fasting condition. Food intake and body weight were measured every 1-3 days. Plasma glucose and triglyceride concentrations were determined calorimetrically using kits from Sigma Chemical Co (No. 315 and No. 339, St. Louis, Mo., USA). Plasma insulin levels were measured using RIA assay kit purchased from Linco Research (St. Charles, Mo.).

The test system of series [5] is ZDF rats. The series is described as follows: Plasma glucose in ZDF rats, (−) versus (+) halofenate (Example 13). It counts as in vivo. The following applies: 50 mg/kg oral once a day for 3 days. As for the experimental part: Male 8-9 week old ZDF rats were purchased from Genetic Models, Inc. (Indianapolis, Ind.). […] Rats that had 4-hour fasting plasma glucose levels between 200 and 500 mg/dL were used. […] The gavage volume was 5 ml/kg. Blood samples were taken at 5 hours post dose on day 2 and 3.

The test system of series [6] is Zucker fatty rats. The experiment in a line: Short insulin tolerance test in Zucker fatty rats (Example 10). As to conditions: 50 mg/kg/day for 5 days. It counts as in vivo. As to the method:
as §1

For series [7], the system named is diabetic ob/ob mice. The series is described as follows: Time course of glucose-lowering after a single oral dose in ob/ob mice (Example 8). The format is in vivo. The following applies: single oral dose 250 mg/kg; for onset and duration of glucose-lowering action, in words: 250 mg/kg.
Series [8] deals with Zucker Diabetic Fatty rats. The experiment in a line: Lipid lowering activity in Zucker Diabetic Fatty rats (Example 11). It counts as in vivo. As to conditions: ZDF rats; for lowering of plasma triglyceride vs control at 7 days, in words: 37.5 mg/kg/day; for difference in plasma cholesterol between control and treated groups, in words: experiment I, 7 and 13 days. As for the experimental part: Male Zucker diabetic fatty (ZDF) rats were obtained from GMI Laboratories (Indianapolis, Ind.) at 9 weeks of age. Vehicle or enantiomers of halofenate administered by oral gavage on a daily basis starting at 74 days of age. Initial blood samples were obtained for analysis one day before treatment and at the indicated times in the treatment protocol. Blood was analyzed for plasma triglyceride and cholesterol by standard techniques.

Series [9] has as its system oxonic acid induced hyperuricemic rats. The experiment in a line: Plasma uric acid in oxonic acid induced hyperuricemic rats (Example 17). It counts as in vivo. The following applies: oxonic acid hyperuricemic SD rats, oral 50 mg/kg for 3 days, 100 mg/kg on day 4, 6 hours post gavage. The source says: Male SD rats, weight 275-300 g were purchased from Charles River. […] To establish a hyperuricemic state, animals were put on a diet containing 2.5% (w/w) of oxonic acid (Sigma Chemical Co, St. Louis, Mo., USA) throughout the experiment. Oxonic acid elevates plasma uric acid by inhibiting uricase. Rats were screened for plasma uric acid levels 3 days after they were placed on the diet, and those that had extreme plasma uric acid levels were excluded. Rats were assigned to one of three groups and the mean uric acid levels were equivalent in each group. […] Oxonic acid was delivered in a liquid formulation containing 0.9% (w/v) methylcellulose. The gavage and injection volumes were 5 ml/kg. Blood samples were taken at 6 hours post oral gavage on day 4. Plasma uric acid levels were determined colorimetrically using the Infinity Uric Acid Reagent (Sigma Chemical Co, St. Louis, Mo., USA).

The mark [10] stands for this setting: 250 mg/kg/day oral, listed as (−) enantiomer, 250 mg/kg/day.

As for `N[C@@H]1C[C@H]1c1ccccc1` (racemic) [TRAN, tranylcypromine], the “Coumarin 7-HC Production” value in [1] is 0.00 ± 0.00 pmol/mg protein/min.

For `CC(=O)NCCOC(=O)C(Oc1cccc(C(F)(F)F)c1)c1ccc(Cl)cc1` (single isomer, unassigned; (-)) [(−) halofenate, (−) 2-acetamidoethyl 4-chlorophenyl-(3-trifluoromethylphenoxy)-acetate], the “overnight fasting plasma insulin after 5 days, in words” value in [2] (125 mg/kg/day oral, listed as (−) enantiomer, 125 mg/kg/day) is “Significantly lower plasma insulins”; in series [2] (setting [10]) it was “Significantly lower plasma insulins”. Further, the “time points with significant plasma glucose reduction vs control” value in series [2] (250 mg/kg/day oral, 250 mg/kg/day) is “also active at 3 hours”. In addition, in series [2] (setting [10]), the “time points with reduced plasma insulin vs control” value is “greatest extent of reduced plasma insulin was noted at 27 and 30 hours”. Also, the “plasma glucose after oral glucose challenge, in words” value in series [3] (single oral dose 5.5 hours before challenge) is recorded as “most effective in lowering the glucose; also recorded: greatest degree of glucose-lowering of all the treated animals”. For the same molecule, the “incremental glucose area under the curve (AUC) vs control, in words” value in [3] (single oral dose) is “significant reductions in the glucose area; also recorded: Significant changes (p<0.05)”. In addition, the “increase of plasma glucose levels with age, in words” value in series [4] is on record as “prevented or significantly delayed”. Also, the “plasma insulin concentration with age, in words” value in [4] is listed as “maintained the plasma insulin concentration”. Further, the “plasma triglyceride levels with age, in words” value in series [4] is “alleviated hyperlipidemia”; in [4] (listed as (−) Halofenate), “alleviated the increase of plasma triglyceride concentration”. For the same molecule, the “plasma glucose compared to vehicle-treated animals, in words” value in series [5] is recorded as “significantly reduced plasma glucose concentrations”. Also, the “insulin sensitivity (slope of decline in glucose after i.v. insulin), in words” value in series [6] is recorded as “improved significantly; also recorded: significantly more insulin sensitive”. Also, the “glucose lowering compared with the (+) enantiomer at 3 hour and 24 hour time points” value in [7] was “more effective and significantly different (p<0.05) from the (+) enantiomer”. In addition, the “onset and duration of glucose-lowering action, in words” value in [7] was “more rapid onset and sustained longer”; in series [7] (listed as (−) enantiomer), “most rapid onset of action and the longest duration of action”. Further, the “days of treatment with significant plasma cholesterol decrease vs control” value in series [8] (12.5 mg/kg/day (Low dose)) was determined as 7 days. In series [8] (37.5 mg/kg/day (High dose)), the “plasma triglyceride levels, in words” value is “lowest triglyceride levels of all the treatment groups”. The “lowering of plasma triglyceride vs control at 7 days, in words” value is recorded as “greater magnitude” in [8] (37.5 mg/kg/day (High dose), listed as (−) enantiomer of halofenate) and “significant lowering of plasma triglyceride” in series [8] (37.5 mg/kg/day (High dose), listed as (−) enantiomer). Further, in series [8] (13 days, racemate 50 mg/kg/day, enantiomers 25 mg/kg/day), the “plasma cholesterol course during treatment, in words” value is on record as “plasma cholesterol declined with treatment”. The “extent of plasma cholesterol lowering, in words” value in series [8] (14 days, 37.5 mg/kg/day (High dose)) is recorded as “greatest extent of cholesterol lowering”. Moreover, the “difference in plasma cholesterol between control and treated groups, in words” value was “significant decrease in plasma cholesterol” in series [8] (enantiomers 25 mg/kg/day) and “most active of the species tested” in series [8] (enantiomers 25 mg/kg/day, listed as (−) enantiomer). Besides, in [9], the “plasma uric acid levels vs vehicle, in words” value is “significantly reduced plasma uric acid levels”.
